Laboratory results published in patent US20240108636A1, “COMPOSITIONS FOR TREATMENT OF NEURODEGENERATIVE CONDITIONS” (BIOVIE INC., priority 2021, published 2024).
Counter-ions that a name gives are not always drawn. Values belong to the compound of their own block, whether it stands above or below them.

Key:
[1] = tested on: MPTP model of Parkinson's disease; assay: Immobility score, MPTP model of Parkinson's disease in marmoset monkeys; format: in vivo, marmoset monkeys (Callithrix jacchus); conditions: for Mean immobility score: 0-4 scale
Description: (§1) The 1-methyl-4-phenyl-1,2,3,6-tetrahydropyridine (MPTP) model that was used is capable of reducing striatal dopamine levels to 5% of normal controls. The MPTP model was used to produce Parkinson's-like disease symptoms in three sequential independent cohorts of six marmosets monkeys (Callithrix jacchus, approximately 0.3-0.5 kg, 2-5 years) which were then observed for 3 weeks to confirm the absence of parkinsonian behavior and motor abnormalities. A single dose of 17-EAT or amantadine was administered at the beginning of Week 4 to confirm the absence of behavioral side effects. All subjects received subcutaneous injections of 1-2 mg/kg MPTP on Days 3, 4, and 5 of Week 5 and Day 1 and 3 of Week 6 for a total of 6.5 mg/kg MPTP and were observed through the end of Week 7 without further treatment, then randomized for treatment.
Oral administration of treatment of vehicle, amantadine, or 17-EAT formulated in acacia syrup began at the start of Week 8. Vehicle controls received acacia syrup only. Amantadine HCl (Sigma Aldrich, A1260-SG) was administered daily at a dose of 1 mg/kg. 17-EAT was administered daily at a dose of 30 mg/kg. In Weeks 8 and 9 test compound activity against parkinsonian behavior was observed several times daily for effects on clinical signs (lack of grooming, apathy, immobility, muscle rigidity, and tremor activity) and given an immobility score on a 0-4 scale, with 0 being normal and 4 being the most severe score. Ratings were performed by study personnel blind to treatment.

[2] = Body weight of MPTP marmosets; format: in vivo, marmoset monkeys (Callithrix jacchus); conditions: FIG. 4
Description: as §1
Oral administration of treatment of vehicle, amantadine, or 17-EAT formulated in acacia syrup began at the start of Week 8. Vehicle controls received acacia syrup only. Amantadine HCl (Sigma Aldrich, A1260-SG) was administered daily at a dose of 1 mg/kg. 17-EAT was administered daily at a dose of 30 mg/kg. […]

[3] = tested on: TNF, IL-1b, IL-6, and other inflammatory cytokines; conditions: cited from earlier work
[4] = tested on: tyrosine hydroxylase positive neurons; assay: Surviving tyrosine hydroxylase positive neurons in substantia nigra of MPTP marmosets; format: in vivo, marmoset monkeys (Callithrix jacchus); conditions: Week 14, substantia nigra; FIG. 3
Method: (§2) The severity of LID was measured by abnormal involuntary movements score (AIMS) adapted to the primate PD model. The items include assessment of extremity and trunk movements, facial expression, and movement of the lips, peri-oral area, tongue, and jaw. These symptoms were scored on a scale from 0 (normal), 1 ([…]), 2 (mild), 3 (moderate) to 4 (severe). Measurement of parkinsonian behaviors continued as previously described. […] The subjects were exsanguinated under deep anaesthesia with Alphaxan (18 mg/kg i.m.). Immediately thereafter, the subjects were euthanized with EUTHASOL (pentobarbital natrium, i.c.). The brain of each subject was removed and frozen for immunohistochemical analyses. SNpc was analyzed for the presence of DA positive neurons with tyrosine hydroxylase immune reactive (TH-IR) staining.
In Week 14, all subjects were sacrificed and tissue samples from the substantia nigra were evaluated to measure the number of surviving tyrosine hydroxylase positive neurons. The increase in number of surviving TH+ neurons for subjects treated with amantadine and 17-EAT was 40% and 75%, as shown in FIG. 3.

[5] = tested on: levodopa-induced dyskinesia (LID); assay: Abnormal involuntary movements score (AIMS), levodopa-induced dyskinesia in MPTP marmosets; format: in vivo, marmoset monkeys (Callithrix jacchus); conditions: for AIMS: Week 12, in combination with levodopa 10 mg/kg, items scored 0-4; for Abnormal involuntary movements scores (AIMS) in combination with levodopa: Week 12, levodopa 5, 7.5, 10, 12.5 or 25 mg/kg, FIG. 2
Method: as §2

[6] = tested on: rodent models of systemic inflammation and neuroinflammation; conditions: cited from earlier work
[7] = Week 7, prior to treatment, 0 normal, 4 most severe
[8] = Week 8, monotherapy, oral daily (amantadine 1 mg/kg, 17-EAT 30 mg/kg)
[9] = Week 9, monotherapy, oral daily (amantadine 1 mg/kg, 17-EAT 30 mg/kg)

Structure (SMILES): C#C[C@]1(O)CC[C@H]2[C@@H]3[C@@H](O)C=C4C[C@@H](O)CC[C@]4(C)[C@H]3CC[C@@]21C [Compound 17-EAT, 17-ethynyl-10R, 13S-dimethyl 2,3,4,7, 8R, 9S, 10, 11, 12, 13, 14S, 15, 16, 17-hexadecahydro-1H-cyclopenta[a]phenanthrene-3R, 7R, 17S-triol]
Mean immobility score [1, 7]: 2.72 | Mean immobility score [1, 8]: 2.26 | Mean immobility score [1, 9]: 2.10 | Mean immobility scores in combination with levodopa ([1]; combination with levodopa 5, 7.5, 10, 12.5 or 25 mg/kg, FIG. 1): improved compared to 17-EAT monotherapy | Mean body weight [2]: maintained a higher mean body weight compared to either vehicle or amantadine | Expression of TNF, IL-1b, IL-6, and other inflammatory cytokines [3]: decreases expression | Increase in number of surviving TH+ neurons [4]: 75% | AIMS [5]: 2.1 | Abnormal involuntary movements scores (AIMS) in combination with levodopa [5]: improved compared to monotherapy | Activity in rodent models of neurological disease ([6]; Parkinson's disease, experimental autoimmune encephalomyelitis, optic neuritis, glaucoma): anti-neuroinflammatory or neuroprotective activity | Activity in rodent models of systemic inflammation ([6]; type 2 diabetes, COPD, rheumatoid arthritis): active in rodent models of systemic inflammation

Structure (SMILES): NC12CC3CC(CC(C3)C1)C2 [Amantadine, Amantadine HCl]
Mean immobility score [1, 7]: 2.59 | Mean immobility score [1, 8]: 2.74 | Mean immobility score [1, 9]: 2.72 | Increase in number of surviving TH+ neurons [4]: 40% | AIMS [5]: 4.5 | Abnormal involuntary movements scores (AIMS) in combination with levodopa [5]: improved compared to monotherapy

LID expression ([5]; levodopa 12.5 mg/kg BID): induced LID expression in all subjects
Structure (SMILES): N[C@@H](Cc1ccc(O)c(O)c1)C(=O)O [Levodopa, L-3,4-dihydroxyphenylalanine]
